Test results published in PMC4551797 (PLoS ONE, 2015).
Read-outs that look alike come from different tables or passages of the source.

Columns and labels:
[1] = test system: C57BL/6 mice; assay: Oral glucose tolerance test with hormone measurement; type: in vivo, mouse; conditions: 30 mg/kg oral, glucose 3 g/kg
Method: For measurement of glucose only, overnight-fasted C57BL/6 mice in a normal light cycle were orally dosed with vehicle or compound, followed by an oral bolus of 3 g/kg glucose at 15 minutes post compound. At 0, 20, 40, 60, and 120 minutes post glucose dose, blood glucose was assessed via glucometers. Resulting raw data was used to generate AUCs. For measurement of hormones and glucose, overnight-fasted C57BL/6 mice acclimated for two weeks to a reverse light cycle were orally dosed with vehicle or compound, followed by an oral bolus of 3 g/kg glucose at 15 minutes post compound. At 0, 2, 5, 10, 20, 40, and 60 minutes post glucose dose, blood glucose was assessed via glucometers, followed immediately by collection of plasma for active GLP-1 (Mesoscale Discovery), insulin (Mesoscale Discovery), and total PYY. Glucose tolerance tests in diet-induced obese (DIO) C57BL/6 mice were performed in overnight-fasted animals dosed either acutely or after 2-week administration with vehicle or compound 18 at 60 mg/kg, followed 30 minutes post compound by an oral bolus of 2 g/kg glucose. At 0, 15, 30, 60, and 120 minutes post glucose dose, blood glucose was assessed via glucometers. Resulting raw data was used to generate AUCs.
To evaluate glucose, insulin, GLP-1, and PYY levels throughout the OGTT, each time-point consisted of a separate group of mice that were used to record glucose by use of a glucometer followed by terminal bleeds for measurement of active GLP-1, total PYY, and insulin. AUCs were then calculated for the entire hour of the OGTT. […] Changes in insulin AUCs were not increased with treatment of either sitagliptin or compound 18, likely due to the lower glucose levels reducing the drive for glucose-stimulated insulin secretion (Fig 5D).
Fig 5 Compound 18 increases GLP-1 and PYY and lowers the glucose and insulin excursions as compared to sitagliptin in an OGTT in C57BL/6 mice. […] Plasma was analyzed for active GLP-1 (A), total PYY (B), and insulin (D), while blood glucose was measured by glucometers (C).

[2] = test system: HEK-293 cells; assay: cAMP production in untransfected HEK-293 cells (specificity control); type: cell-based; conditions: Homo sapiens, HEK293, read-out: cAMP production: no elevation up to
Method: (§1) HEK-293 cells were obtained from ATCC and a clonal HEK-293 line overexpressing mouse TGR5 was prepared. Both were maintained in Dulbecco’s modified Eagle’s medium (DMEM) containing 10% fetal bovine serum (FBS) and penicillin /streptomycin. Mouse STC-1 cells were obtained from ATCC under agreement with the Cold Spring Harbor Laboratories and maintained in DMEM containing 10% FBS and penicillin /streptomycin. NCI-H716 cells were obtained from ATCC and were maintained in RPMI-1640 with 10% FBS. NCI-H716 cells were cultured in 96 well plate coated with Matrigel (BD). After 72 hours, cAMP production stimulated with TGR5 agonists was measured using HTRF cAMP assay kit (CISBIO). The level of cAMP in suspensions of STC-1 cells stimulated with increasing concentrations of TGR5 agonists was also determined. […] The production of GLP-1 was determined using a GLP-1 Assay (7–36) amide kit (Mesoscale Discovery) following the manufacturer’s instructions. […]
(§2) Compound 18 is a novel small molecule agonist of TGR5 developed by Eli Lilly and Company (MW = 508.62, Fig 2A). […] In order to determine potency of compound 18 for the mouse and human TGR5 receptor in cells with endogenous levels of receptor, we measured compound 18-stimulated cAMP production and GLP-1 secretion in both mouse (STC-1) and human (NCI-H716) enteroendocrine cell lines, that we have shown to express TGR5 natively (Fig 1). […]

[3] = test system: STC-1 cells; assay: GLP-1 secretion in STC-1 enteroendocrine cells; type: cell-based; conditions: Mus musculus
Method: as §1, §2

[4] = test system: wild-type mice; assay: Three-day study on GLP-1, PYY and bile weight in wild-type littermates; conditions: 100 mg/kg oral BID 3 days, 30 min after last dose
Method: C57BL/6 mice, Tgr5 KO mice, or their wild-type littermate controls were orally dosed with vehicle or compounds twice per day for 3 days, with overnight fasting performed on the evening of day 2. On the morning of day 3, animals were dosed orally with compounds and then euthanized by CO2 asphyxiation at 30 minutes after the fifth dose. Plasma was collected for analysis of GLP-1 (X-36) amide as mentioned above, followed immediately by incision into the abdominal cavity to remove and weigh bile from the gallbladder.

CC(=O)N1CCC(C(C)N(C(=O)COc2cccc3sc4nc(C)cn4c23)c2ccc(F)cc2)CC1 (stereo not shown) [compound 18]
AUC of active GLP-1 during OGTT ([1]; 1 hour): superior AUC for active GLP-1 above both vehicle and sitagliptin
AUC of total PYY during OGTT ([1]; 1 hour): higher increase in the AUC of total PYY above both vehicle and sitagliptin
insulin AUC during OGTT ([1]; 1 hour): not increased
glucose excursion during OGTT ([1]; versus sitagliptin 10 mg/kg): levels indistinguishable from those of sitagliptin-treated animals
EC50 [2]: > 30 µM
EC50 ([3]; read-out: EC50, GLP-1 secretion): 307 nM
EC50 ([3]; unit inferred, x-axis in nM, read-out: EC50 STC-1 (Fig 2D inset, GLP-1 secretion)): 307 nM
GLP-1 [4]: significant increase
PYY [4]: significant increase
bile weight [4]: significant increase
